A short description of data set [1]: Log P, 1-octanol/water partition. In kind it is physicochemical. Particulars: 1-octanol/water (1:1). On the procedure:
The log P values of TPA compounds were obtained according to previously reported methods.[66] 1-octanol was first presaturated with water. Equal volume and concentration of TPA-NC-1, TPA-0, and TPA-1 were added to a 1-octanol/water (1:1) mixture and vortexed for 1 min. The mixture was then centrifuged for 5 min at 13,500 rpm. After that, the absorptions of the compound in the 1-octanol and water phases were measured. The concentrations of the compound in both phases were calculated by using the absorption calibration curve of the corresponding compound. Log P = log (concentration of the compound in 1-octanol/concentration of the compound in water).

Another data set relates to S. aureus (ATCC 29213). Briefly: MIC assay (broth microdilution, CLSI), without light. The format is cell-based. To be noted: Staphylococcus aureus, ATCC29213, light or radiation study; read-out: MIC against ATCC 29213 Staphylococcus aureus without light irradiation. On the procedure:
(§1) The MIC assays of TPA-1 were conducted according to the broth microdilution methods described in the Clinical and Laboratory Standards Institute (CLSI) standard. A single colony of S. aureus (ATCC 29213), methicillin-resistant S. aureus (BAA 41), or P. aeruginosa (ATCC 27853) on an LB agar plate was picked and suspended in Mueller–Hinton Broth (MHB). The bacterial culture was grown overnight at 37 °C. The next day, the bacteria culture was diluted 100 times in fresh MHB and grown to the mid log phase. Bacteria in the mid log phase were further diluted to 5 × 10^6 CFU/mL in cation-adjusted MHB (S. aureus) or MHB (P. aeruginosa). Ten μL of the diluted bacteria were added to a 96-well plate containing 90 μL of serial diluted TPA-1 in the corresponding medium. The plate was incubated overnight at 37 °C. The MICs of the TPA compounds were the concentrations at which no apparent bacteria were observed by the naked eye. Different concentrations of LTA were also added to examine the change in MIC values of TPA-1 against S. aureus. The experiments were conducted in triplicate.

Data set [2] has as its system P. aeruginosa (ATCC 27853). The description is as above. In kind it is cell-based. To be noted: Pseudomonas aeruginosa, ATCC27853, light or radiation study. The procedure:
as §1

Data set [3] deals with methicillin-resistant S. aureus (BAA 41). The description is as above. The format is cell-based. Particulars: Staphylococcus aureus. The procedure:
as §1

A further data set relates to S. aureus. Briefly: Time-kill kinetics against S. aureus. In kind it is cell-based, Staphylococcus aureus. Particulars: 2 × MIC (6.25 μM), dark. On the procedure: Similar to the MIC assay, the overnight culture of S. aureus incubated under darkness was diluted in fresh MHB and grown to the mid log phase. The S. aureus was then diluted to 1 × 10^6 CFU/mL in cation-adjusted MHB. Three mL of diluted S. aureus was transferred into a 15 mL culture tube. 2 × MIC and 4 × MIC of TPA-1 was added into the bacterial culture and incubated under darkness for 24 h. 2 × MIC of vancomycin and PBS were taken as the positive and negative controls, respectively. At time 0, 0.5, 1, 2, 4, 6, 8, and 24 h, 20 μL of the bacteria culture was taken out. The bacteria were serially diluted, and the number of viable bacteria was recorded using the plate counting method. The experiment was performed in triplicate.

A short description of data set [4]: Light toxicity on HFF-1 cells (MTT after PDT). In kind it is cell-based. To be noted: human, 600 nm light irradiation for 45 min. On the procedure: HFF-1 cells were seeded in a 96-well plate with a density of 10,000 cells/well for 12 h at 37 °C in darkness. Different concentrations of TPA-1 were added to the cell culture medium and incubated for 20 min at 37 °C in darkness. The cells were then incubated in the dark or irradiated by 600 nm light for 45 min. The cell viability was then evaluated using the MTT assay, which was described in the cytotoxicity assay.

Another data set relates to S. aureus mature biofilm. Briefly: S. aureus mature biofilm eradication assay in the dark. In kind it is cell-based, Staphylococcus aureus. Particulars: 24 h. The procedure: For biofilm eradication assay, overnight culture of S. aureus in TSB under darkness was diluted to 1 × 10^5 CFU/mL in TSB (with 1% glucose). 100 μL of the diluted culture was transferred to each well of a 96-well plate. The plate was kept at 37 °C for 24 h under darkness to form mature biofilms. The medium was removed, and the biofilms were washed with 200 μL of PBS (3 times). 100 μL of the premixed TPA-1 solutions in TSB (with 1% glucose) were added to the wells. The plate was further incubated for 24 h under darkness and subjected to the crystal violet assay as stated in the biofilm inhibition assay. The biofilm survival rate (%) was calculated as (ODTPA-1 – ODblank)/(ODmedium – ODblank) × 100% where ODTPA-1, ODmedium, and ODblank were the absorbances of the wells with bacteria treated TPA-1, with bacteria without treatment and with medium only, respectively. The experiment was performed in triplicate.

The subject of another data set is MRSA (ATCC 43300). Briefly: Wound infection mouse model, MRSA biofilm. In kind it is in vivo. To be noted: mice, topical 90 μM, 600 nm 15 min, every 24 h for 4 days (TPA-1 + L). On the procedure:
All in vivo experiments were approved by the Department of Science and Technology of Zhejiang Province (SYXK(Zhejiang)2021-0043). Female BALB/c mice (10–12 weeks old) were kept in 12 h light and 12 h dark cycle with access to free food and water for 7 days before and throughout the experiment. The backs of the mice were shaved and disinfected with iodine. A full-thickness circular wound (7 mm in diameter) was then created at the back of the mice. The mice were allowed to recover for 24 h after surgery to prevent sepsis.[65] Ten μL of 1× 10^8 CFU/mL MRSA (ATCC 43300) or P. aeruginosa (ATCC 27853) in saline was added to the wound. The wound was covered with an adhesive dressing for 24 h of infection. Next, the mice were randomly divided into four groups: (1) 50 μL TPA-1 (90 μM) with 600 nm light irradiation (60 mW/cm^2) for 15 min, (2) 50 μL TPA-1 (90 μM) in dark, (3) 50 μL saline with 600 nm light irradiation (60 mW/cm^2) for 15 min, and (4) 50 μL saline in dark. For light irradiation groups, TPA-1 and saline were incubated on the wound for 10 min before irradiation. The treatment was sustained for 4 days. The wound size and body weight of the mice were recorded every day. On day 6, the mice were euthanatized, and the wound tissue was collected. […] The other half of the tissue was homogenized, and the number of viable bacteria was measured by the plate counting method.

For orientation: logP means a log measure of how a compound divides between an organic and an aqueous phase. The low end stands for a more hydrophilic compound, the high end for a more lipophilic compound. The MIC is the least concentration at which growth counts as inhibited. Usually viability stands for the share of living cells, or the viability signal relative to a control. A high value points to less harm to the cells.

Read-outs that look alike come from different tables or passages of the source.

In turn, `C#CCC[n+]1c(/C=C/c2ccc(-c3ccc(N(c4ccc(OCCC[N+](C)(C)C)cc4)c4ccc(OCCC[N+](C)(C)C)cc4)cc3)s2)sc2ccccc21.[Br-].[Br-].[Br-]` [TPA-1] yielded a logP in data set [1] of -1.6. In addition, the MIC in the data set with S. aureus (ATCC 29213) was 3.12 µM; in data set [2] (read-out: MIC against ATCC 27853 Pseudomonas aeruginosa without light irradiation), 100 µM; in data set [2] (without light irradiation, read-out: MIC against P. aeruginosa (ATCC 27853)) it was above 100 µM; in data set [3] (ATCC BAA-41 / BAA-41, light or radiation study, read-out: MIC against ATCC BAA41 Methicillin-resistant Staphylococcus aureus without light irradiation), 3.12 µM; in data set [3] (BAA41, light or radiation study, read-out: MIC against methicillin-resistant S. aureus (BAA 41)), 3.12 µM. Moreover, the “time to completely eradicate S. aureus” value in the data set with S. aureus is on record as at most 2 h. This compound also came in with a viability at 45 min, 40 µM in data set [4] above 90%. Further, the “eradication of mature S. aureus biofilms without light” value in the data set on S. aureus mature biofilm is on record as “only limited ability to eradicate mature biofilms”. In addition, the “MRSA eradicated in infected tissues” value with MRSA (ATCC 43300) is 96% ± 3%. Besides, the “MRSA log (CFU/mg tissue) reduction” value in the data set with MRSA (ATCC 43300) is 1.4 ± 0.6 log (CFU/mg tissue).

(Values after article PMC12035805, “A Water-Soluble Aggregation-Induced Emission Photosensitizer with Intrinsic Antibacterial Activity as an Antiplanktonic and Antibiofilm Therapeutic Agent” (Journal of Medicinal Chemistry, 2025).)
